# Test system: alanine aminotransferase (ALAT)
# Assay: ALAT elevation during longer-term ximelagatran treatment in clinical trials
# Format: in vivo, human
# From the text: Phase III clinical trials have been performed using fixed doses of melagatran and ximelagatran for the prevention of VTE in hip or knee replacement surgery. In addition, clinical trials have been performed using ximelagatran for the treatment and long-term secondary prevention of VTE, and for the prevention of stroke in patients with non-valvular atrial fibrillation. Ximelagatran has also been tested for secondary thrombosis prophylaxis post-myocardial infarction/acute coronary syndrome (ACS).
# Alanine aminotransferase (ALAT) is an enzyme mostly expressed in the liver (EC 2.6.1.2). It is also called serum glutamate pyruvate transaminase (SGPT) or alanine transaminase (ALT). This enzyme is released into the plasma by liver cell death, which is a normal event. However, when liver cell death increases, ALAT levels rise above the normal range. The spill-over of this enzyme into blood is routinely measured as a marker of abnormal liver-cell damage. For example, alcoholic or viral hepatitis will increase ALAT levels, as will severe congestive heart failure. An elevated ALAT in the presence of normal levels of plasma alkaline phosphatase helps distinguish liver disease caused by liver-cell damage from diseases caused by problems in biliary ducts.
# Elevations of ALAT are normally measured in multiples of the upper limit of normal (ULN), with a reference range of 15-45 U/L in most laboratories. In 1987, in a study of 19,877 healthy Air Force recruits, only 99 (0.5%) had confirmed ALAT elevations (as reviewed in Green & Flamm (2002) Gastroenterology 123:1367-1384).
# The increase in ALAT values with ximelagatran usually occurred within the first 6 months of treatment and were mainly asymptomatic. […] Subject to the future regulatory approval of ximelagatran, regular liver function testing (LFT) using an appropriate algorithm may be required if ximelagatran is used for treatment periods exceeding a month. Studies are currently ongoing to try and establish the mechanism of the ALAT elevations, and their hepatic and overall clinical significance.
compound,measurement,setting,value
"CCOC(=O)CN[C@@H](C(=O)N1CC[C@H]1C(=O)NCc1ccc(/C(N)=N\O)cc1)C1CCCCC1 [ximelagatran, EtOOC—CH2—(R)Cgl-Aze-Pab-OH]",patients exhibiting levels of alanine aminotransferase (ALAT) 3-fold or more above the upper limit of normal (≧3×ULN),"longer-term treatment (>35 days), 1.2% in the comparator groups",7.9%
same,reversibility of ALAT increases,regardless of whether treatment was continued or discontinued,reversible in most patients
same,time of occurrence of the increase in ALAT values,"usually, from start of treatment, mainly asymptomatic",≤ 6 months

# Source: patent publication US20090036424A1, “ASSOCIATION BETWEEN HLA-DRBI*07 ALLELE AND SUSCEPTIBILY TO INCREASED LEVELS OF ALAT FOLLOWING XIMELAGATRAN ADMINISTRATION” (AstraZeneca AB, priority 2005, published 2009)
